Laboratory results reported in paper PMC5923414, “Terpenoids from the Soft Coral Sinularia sp. Collected in Yongxing Island” (Marine Drugs, 2018).
Where two headings read alike, the source gives them in different places.

What was measured:
[1] = system: influenza A virus (H1N1); assay: antiviral activity, CPE inhibition assay; assay type: cell-based
Method: (§1) The antiviral activities against influenza A virus (H1N1) and (PR8) were evaluated by the CPE inhibition assay as the literature reported. […]

[2] = system: Plasmodium falciparum 3D7; assay: in vitro antimalarial activity, SYBR-Green assay; assay type: cell-based; settings: 10 nM dihydroartemisinine as positive control, read-out: IC50, antimalarial activity against P. falciparum 3D7
Method: The in vitro antimalarial activity was assessed against P. falciparum (3D7) using an SYBR-Green assay with 10 nM dihydroartemisinine as positive control. Twelve diluted samples (5 µM, 10 µM, 20 µM, 40 µM, 80 µM, 100 µM, 200 µM, 400 µM, 800 µM, 1 mM, 2 mM, and 4 mM) were added to the test wells to obtain the 50% inhibiting concentration.

[3] = cytotoxicity, MTT method; assay type: cell-based; settings: human
Method: The cytotoxicities against Jurkat, MDA-MB-231, U2OS, HeLa, HCT-116, and A549 cell lines were assayed by MTT method with Adriamycin as a positive control. All the cell lines were purchased from Shanghai Institute of Cell Biology (Shanghai, China).

[4] = system: influenza A virus (PR8); assay: antiviral activity, CPE inhibition assay; assay type: cell-based; settings: read-out: IC50 against influenza A virus PR8
Method: as §1

[5] = target: acetylcholinesterase (Homo sapiens, UniProt P22303); assay: acetylcholinesterase inhibition, Ellman spectrophotometric method; assay type: biochemical; settings: at 50 μg/mL; read-out: inhibition rate against acetylcholinesterase
Method: (§2) Evaluation of the inhibitory effects on acetylcholinesterase was performed by the spectrophotometric method developed by Ellman with slight modifications as reported, and on c-Met and PTP1B by using the enzyme-linked immunosorbent assay (ELISA) methodology.

[6] = target: T1, protein tyrosine phosphatase 1B (PTP1B) (Homo sapiens, UniProt P18031); assay: biochemical; settings: read-out: IC50, target inhibitory activity against PTP1B
T1 sequence (P18031 1-435): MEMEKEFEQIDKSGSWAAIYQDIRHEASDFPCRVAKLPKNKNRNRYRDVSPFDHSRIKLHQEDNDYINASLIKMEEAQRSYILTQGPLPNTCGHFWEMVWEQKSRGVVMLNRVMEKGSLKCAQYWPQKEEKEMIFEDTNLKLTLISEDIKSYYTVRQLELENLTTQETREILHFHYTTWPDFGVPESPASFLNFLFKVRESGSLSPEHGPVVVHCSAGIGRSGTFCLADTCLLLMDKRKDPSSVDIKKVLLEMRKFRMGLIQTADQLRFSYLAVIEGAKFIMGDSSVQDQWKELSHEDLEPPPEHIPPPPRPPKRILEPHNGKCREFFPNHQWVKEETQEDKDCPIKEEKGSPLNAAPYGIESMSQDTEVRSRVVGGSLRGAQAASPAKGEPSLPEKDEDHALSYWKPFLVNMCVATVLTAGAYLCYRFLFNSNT
Method: as §2

Sequence of acetylcholinesterase (P22303 32-614, species assumed): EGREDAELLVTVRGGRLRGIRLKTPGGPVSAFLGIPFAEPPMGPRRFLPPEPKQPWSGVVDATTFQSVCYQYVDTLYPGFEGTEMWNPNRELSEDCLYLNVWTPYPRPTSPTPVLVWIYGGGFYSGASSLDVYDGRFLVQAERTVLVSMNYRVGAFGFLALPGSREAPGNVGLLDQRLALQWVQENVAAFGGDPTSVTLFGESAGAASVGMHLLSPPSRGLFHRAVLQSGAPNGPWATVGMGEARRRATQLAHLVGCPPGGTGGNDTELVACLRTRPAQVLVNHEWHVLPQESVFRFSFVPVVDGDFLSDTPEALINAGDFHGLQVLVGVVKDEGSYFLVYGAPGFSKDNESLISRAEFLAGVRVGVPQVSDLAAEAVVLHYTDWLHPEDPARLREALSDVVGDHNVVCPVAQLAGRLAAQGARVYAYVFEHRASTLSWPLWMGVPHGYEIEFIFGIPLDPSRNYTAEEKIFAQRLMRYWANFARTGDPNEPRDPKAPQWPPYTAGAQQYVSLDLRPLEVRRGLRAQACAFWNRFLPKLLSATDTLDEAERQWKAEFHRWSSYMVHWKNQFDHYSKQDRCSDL

NC(=O)c1ncn([C@@H]2O[C@H](CO)[C@@H](O)[C@H]2O)n1 [ribavirin, reference compound]
IC50 ([1]; positive control, strain (H1N1 or PR8) not specified, read-out: IC50 of positive control, influenza A viruses): 103 µM

C=C1CCC2(O)CC3(CCC(C(C)C)C3C1)OO2 (stereo not shown) [Compound 1, Sinuketal]
IC50 [2]: 80 µM
IC50 ([3]; Jurkat cells, Jurkat cell line, read-out: IC50, cytotoxic activity toward Jurkat): 24.9 µM
IC50 ([3]; MDA-MB-231 cells, MDA-MB-231 cell line, read-out: IC50, cytotoxic activity toward MDA-MB-231): 32.3 µM
IC50 ([3]; U2OS cells, U2OS cell line, read-out: IC50, cytotoxic activity toward U2OS): 41.7 µM
IC50 ([1]; H1N1, read-out: IC50 against influenza A virus H1N1): 172 µM
IC50 [4]: 443 µM
inhibition at 50 µg/mL [5]: 20.2%

C=C(C)C1CC=C(C(=O)OC)CC(=O)CC2(C)CC(=O)C(CC(=O)C1)O2 (stereo not shown) [Compound 5, sinulin D]
IC50 [6]: 47.5 µM

C=C(C)[C@@H]1C/C=C2\C(=O)O[C@@H](C[C@]3(C)CC(=O)[C@H](CC(=O)C1)O3)[C@@H]2O [Compound 20, 5-episinuleptolide]
IC50 ([3]; HCT-116 cells, HCT-116 cell line, read-out: IC50, cytotoxicity against HCT-116): 33.3 µM
IC50 ([3]; HeLa cells, HeLa cell line, read-out: IC50, cytotoxicity against HeLa): 11.6 µM

C=C(C)C1CCC(C)=CCCC(C)=CCCC2(C)OC2C1 [Compound 15, (1R,3S,4S,7E,11E)-3,4-epoxycembra-7,11,15-triene]
IC50 [6]: 12.5 µM

CC(C)[C@@H]1CC[C@@](C)(O)[C@@H]2CCC(CO)=C[C@H]21 [Compound 11, 15-hydroxy-α-cadinol]
IC50 [6]: 22.1 µM
